Key:
[1] = cited from earlier work
[2] = metered nasal spray 0.4 mg nicotine equivalent
Description: A subject who was an addicted smoker was provided a metered nasal spray delivering 0.4 mg of nicotine equivalent in form of nicotine diacesulfamate. The nicotine salt was dissolved in water without any other additive ingredients.

[3] = oral inhaler, water solution
Description: A subject is administered nicotine by means of an oral inhaler. The nicotine is prepared as the diacesulfamate and is prepared in water solution.

[4] = powder nasal spray, encapsulated in starch microspheres
Description: A subject is administered nicotine by means of a powder nasal spray. The nicotine is prepared as the diacesulfamate and is encapsulated in starch microspheres.

[5] = nasal, single doses of one mg, in man; cited from earlier work

CC1=CC(=O)NS(=O)(=O)O1 [Acesulfamic acid, 6-Methyl-1,2,3-Oxathiazin-4(3H)1,2,2-dioxide H]
solubility in alcohol and non-polar solvents ([1]; alcohol and non-polar solvents): soluble
solubility in water ([1]; water): only sparingly soluble

CC1=CC(=O)NS(=O)(=O)O1.CC1=CC(=O)NS(=O)(=O)O1.CN1CCC[C@H]1c1cccnc1 [nicotine diacesulfamate]
relief from desire to smoke ([2]; addicted smoker, dissolved in water, once in each nostril): relief from desire to smoke within two minutes
taste and feelings in the nostril ([2]; in water): not unpleasant, but distinctive
irritation to nasal mucosa, throat or lungs ([2]; in water, once in each nostril): No report was made of any irritation to nasal mucosa, nor to the throat or lungs
burning feeling in buccal area, throat or lungs [3]: No burning feeling is noted
relief from craving to smoke [3]: relief from craving to smoke soon after use
burning feeling on administration [4]: No burning feeling is noted
relief from cravings to smoke [4]: relief from the cravings to smoke soon after use

CN1CCCC1c1cccnc1 (stereo not shown) [nicotine]
time to maximum concentration [5]: ≤ 10 min

Source: patent US20030171408A1, “Therapeutic method of delivering a medicament to avoid irritating effects on membranes of user” (priority 2002, published 2003)
